Laboratory results reported in PubChem BioAssay (NCI).
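Tested at 5 concentrations; 48 h exposure; 96-well plates; endpoints linearly interpolated, else capped at highest concentration. Abbreviation: GI50, concentration required for 50% inhibition of growth. TGI: total growth inhibition.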

What was measured:
Experiment in all cases: NCI tumour cell line growth inhibition, 48 h
CAKI-1 renal = test system: CAKI-1 renal
COLO 205 colon = test system: COLO 205 colon
DU-145 prostate = test system: DU-145 prostate
K-562 leukemia = test system: K-562 leukemia
MDA-MB-435 = test system: MDA-MB-435
NCI-H23 lung = test system: NCI-H23 lung
NCI-H460 lung = test system: NCI-H460 lung
PC-3 prostate = test system: PC-3 prostate
SK-MEL-5 melanoma = test system: SK-MEL-5 melanoma
SNB-75 CNS = test system: SNB-75 CNS

Row | Structure (SMILES) | GI50 (CAKI-1 renal) [µM] | TGI (CAKI-1 renal) [µM] | GI50 (COLO 205 colon) [µM] | TGI (COLO 205 colon) [µM] | GI50 (DU-145 prostate) [µM] | TGI (DU-145 prostate) [µM] | GI50 (K-562 leukemia) [µM] | TGI (K-562 leukemia) [µM] | GI50 (MDA-MB-435) [µM] | TGI (MDA-MB-435) [µM] | GI50 (NCI-H23 lung) [µM] | TGI (NCI-H23 lung) [µM] | GI50 (NCI-H460 lung) [µM] | TGI (NCI-H460 lung) [µM] | GI50 (PC-3 prostate) [µM] | TGI (PC-3 prostate) [µM] | GI50 (SK-MEL-5 melanoma) [µM] | TGI (SK-MEL-5 melanoma) [µM] | GI50 (SNB-75 CNS) [µM] | TGI (SNB-75 CNS) [µM]
1 | COc1ccc(-n2cc(-c3ccc(OC)c(OC)c3)[nH]c2=O)cc1 | > 100 | > 100 | > 100 | > 100 | > 100 | > 100 | > 100 | > 100 | > 100 | > 100 | > 100 | > 100 | > 100 | > 100 | > 100 | > 100 | > 100 | > 100 | 12.1 | 99.3
2 | COc1cc(O)ccc1C(=S)SC | – | > 100 | – | > 100 | – | > 100 | – | > 100 | – | > 100 | – | > 100 | – | > 100 | – | > 100 | – | > 100 | – | > 100
3 | COc1c2ccoc2nc2c(OC)c(OCC(O)C(C)(C)O)ccc12 (stereo not given) | – | > 100 | – | > 100 | – | > 100 | – | > 100 | – | > 100 | – | > 100 | – | > 100 | – | > 100 | – | > 100 | – | > 100
4 | CC1=NN(c2cccc(Cl)c2)C(=O)/C1=C\c1cn(CC(O)CN2CCCCC2)c2ccccc12 (stereo not given) | 1.83 | 5.33 | 1.73 | 3.26 | 10.4 | 23.2 | 3.29 | 39.4 | 1.89 | 3.74 | 12.4 | 32.4 | 2.44 | 6.4 | 9.81 | 26.1 | 3.34 | 10.9 | 7.75 | 21.1
5 | COc1cc(/C=N/NC(=O)c2cnn3c2NC(c2ccccc2)C3)ccc1OC1CCCC1 (stereo not given) | 0.556 | 5.01 | 0.59 | 7.53 | 1.06 | 7.03 | 0.348 | > 30.4 | 0.258 | 1.28 | 1.44 | 8.85 | 0.389 | 1.56 | 0.503 | 3.44 | 0.59 | 4.77 | 0.207 | 0.778
6 | Oc1ccc(Cl)cc1C=Nc1cnc2ccccc2c1 | – | > 100 | – | > 100 | – | > 100 | – | > 100 | – | > 100 | – | > 100 | – | > 100 | – | > 88.4 | – | > 90 | – | > 87.6
7 | CSc1nc(Nc2cccc(NC(=O)CCl)c2)c(C#N)c(-c2cccc([N+](=O)[O-])c2)n1 | 2.12 | 10.4 | 1.82 | 3.54 | 2.25 | 4.57 | 2.28 | > 100 | 2.15 | 5.16 | 1.7 | 4.35 | 4.12 | 23.2 | 1.61 | 3.73 | 1.51 | 3.28 | 0.682 | 4.8
8 | N#C/C(=C\c1ccc2[nH]ccc2c1)C(=O)NCCCCNC(=O)/C(C#N)=C/c1ccc2[nH]ccc2c1 | – | > 31.6 | – | > 31.6 | – | > 10 | – | > 31.6 | – | > 10 | – | > 31.6 | – | > 31.6 | – | > 10 | – | > 31.6 | – | > 31.6
